Measured values taken from patent publication US20220047527A1, “FOOD-AND-DRINK COMPOSITION CONTAINING ASTAXANTHIN” (AstaReal Co., Ltd., priority 2016, published 2022).

Assays:
[1] = tested on: human having a sense of fatigue; experiment: OSA sleep analysis (OSA sleep inventory MA version); format: in vivo
Protocol: A placebo-controlled, randomized, double-blind, parallel-group study was employed for ingestion of the test food, and two groups, namely, the control group (placebo group) with ingestion of a capsule not containing astaxanthin and the astaxanthin group with ingestion of a capsule containing 6 mg of astaxanthin (120 mg of Haematococcus algae extract and 10 mg of tocotrienol mixture derived from palm oil) were compared through a double-blind method. For ingestion of the test food, the subjects were instructed to ingest one capsule twice daily (total 12 mg of astaxanthin (240 mg of Haematococcus algae extract and 20 mg of tocotrienol mixture derived from palm oil) in two capsules per day), one after breakfast (or after the first meal of the day if no breakfast was taken) and the other after dinner, with water or lukewarm water within 30 min of eating. The overall duration for ingestion was 8 weeks (12 weeks only for the OSA sleep analysis). The subjects were also instructed to record their test food ingestion, drinking, and exercise in a diary every day, from the first day to the last day of ingestion.
In accordance with a method reported in Yukari Yamamoto, Hideki Tanaka, Miki Takase, Katuo Yamazaki, Kazuo Azumi, and Shuichiro Shirakawa: “Development and standardization of OSA sleep inventory (MA version) for middle-aged and elderly individuals”, Brain Science and Mental Disorders, vol. 10, p 401-409, 1999, the subjects were instructed to evaluate with respect to items listed in the OSA sleep inventory, and the results were analyzed. The assessment was performed once in the morning of the day of assessment (before load application). The OSA sleep inventory (MA version) consists of 16 items in terms of five factors, namely, First factor: sleepiness on rising, Second factor: initiation and maintenance of sleep, Third factor: frequent dreaming, Fourth factor: refreshing, and Fifth factor: sleep length, and the subjects were instructed to answer each question from four choices, and the results were converted to scores with a conversion table for analysis.

[2] = tested on: salivary secretory immunoglobulin A (sIgA); experiment: Measurement of salivary secretory immunoglobulin A (EIA); format: in vivo, human
Text: Salivary cortisol, which was examined as a biochemical index for a mental load, is used as a stress marker because of simplicity of measurement due to the high correlation with blood cortisol, and known to be increased by an acute mental stress, for example, caused at making a speech in front of others or doing mental calculation or by continuous, high-intensity exercise. Because the salivary cortisol concentration is known to show circadian variation, being high in the morning and then declining as the night approaches, mental load application (calculation load; Uchida-Kraepelin test) was performed in the morning in this study. Salivary secretory immunoglobulin A (sIgA) is an antibody produced by B cells that inhibits the proliferation of pathogens on the mucosa of the oral cavity, airway, intestines, and other organs. It is known that reduction of sIgA in saliva is associated with the development of upper respiratory tract infection and that salivary sIgA concentration decreases under chronic stress and increases in a relaxed state.
Saliva samples were collected from the subjects in the morning of the day of assessment (before load application) in the same manner as in (1) of [5-2]. The sIgA concentration in each saliva sample was measured with an enzyme immunoassay (EIA) kit (EIA s-IgA Test Kit, Medical & Biological Laboratories Co., Ltd.).

[3] = astaxanthin group vs pre-ingestion, no significant difference (FIG. 2)

CC1=C(/C=C/C(C)=C/C=C/C(C)=C/C=C/C=C(C)/C=C/C=C(C)/C=C/C2=C(C)C(=O)C(O)CC2(C)C)C(C)(C)CC(O)C1=O (stereo not drawn) [astaxanthin, 3,3′-dihydroxy-β,β-carotene-4,4′-dione]
OSA First factor (sleepiness on rising) [1, 3]: large increase | OSA Fourth factor (refreshing) [1, 3]: large increase | OSA Second factor (initiation and maintenance of sleep) [1, 3]: large increase | OSA Fifth factor (sleep length) ([1]; astaxanthin group, 12 mg/day, vs pre-ingestion (FIG. 2)): marginally significant increase | degree of improvement in Fifth factor (sleep length) compared with chamomile tea ([1]; vs literature: 200 mL chamomile tea 1 hour before bedtime over three days): larger | salivary sIgA concentration ([2]; after 8-week ingestion): 41.9 ± 5.5 µg/mL | salivary sIgA concentration ([2]; at pre-ingestion (before load application), astaxanthin group): 46.5 ± 8.2 µg/mL | change in salivary sIgA concentration ([2]; until week 8 of ingestion vs pre-ingestion (FIG. 8)): no significant change
